The values that follow come from PMC4729491, “The Cellular Thioredoxin-1/Thioredoxin Reductase-1 Driven Oxidoreduction Represents a Chemotherapeutic Target for HIV-1 Entry Inhibition” (PLoS ONE, 2016).

As usually defined, the EC50 is the midpoint of the concentration-response curve. For orientation: IC50 means the concentration at which inhibition is half-maximal.

“Also recorded” adds a separate entry of the source.

The test system of one data set is HIV-1(BaL). The data set can be described thus: Antiviral activity in PHA-stimulated PBMCs (p24 ELISA), HIV-1(BaL). It is filed as cell-based. Conditions: PHA-stimulated PBMCs; mean ± SD; read-out: EC50 HIV-1 (BAL). Here is the method: (§1) To test the antiviral activity in fresh, PHA-stimulated PBMCs, an experiment was performed as previously described. Briefly, the cells were preincubated with HIV-1(IIIB), HIV-1(BaL) or HIV-1(HE) for 1 h at 37°C, using a viral load of 1000 x CCID50 per ml. Then, cell suspensions containing virus and 2 x 10^5 PBMCs were seeded in a 96-well microtiter plate and a serial dilution of compound was added, in a total volume of 200 μl. After 4 days, the cells were passaged and fresh culture medium, containing IL-2 and compound, was added. Three days later, cellular supernatants were harvested and viral replication in the presence of the compounds was quantified using a p24 enzyme-linked immunosorbent assay (ELISA) (Perkin Elmer, Brussels, Belgium). The half maximal effective concentration (EC50) was defined as the compound concentration that is required to block viral replication by 50%.
In general terms: An ELISA detects its analyte on a solid surface through an enzyme-linked reagent.

In data set [1] the test system is HIV-1(IIIB). The data set can be described thus: Antiviral activity in PHA-stimulated PBMCs (p24 ELISA), HIV-1(IIIB). Type of data set: cell-based. Conditions: PHA-stimulated PBMCs; mean ± SD; read-out: EC50 HIV-1 (IIIB). Here is the method:
as §1

Data set [2] concerns HIV-1(IIIB). It is filed as cell-based. Conditions: MT-4 cells, p24 ELISA at 31 h; TE-2 at 50 μM. As for the experimental part: Two time-of-drug-addition (TOA) experiments were performed and adopted from previously reported methods. Briefly, MT-4 cells were infected with HIV-1(IIIB) at a multiplicity of infection of 0.5. Following a 1 hour adsorption period, cells were washed, distributed in a 96-well tray at 100,000 cells per 200 μl per well and incubated at 37°C.
For the first experiment, test compounds were added to the infected cell cultures at different time points (i.e. 0, 1, 2, 3, 4, 5, 6, 7, 8, 9, 24, and 25 h) after the start of infection.
In a second experiment, the resolution of the assay was increased by evaluating early time points in more detail. Therefore, the test compounds were added to the infected cell cultures at the following time points after the start of infection: 0, 15, 30, 45, 100 and 180 min; and 24 as well as 25 h.
Product added at time points 0, 15, 30 and 45 min was present at the start of the viral infection and washed away after 1 hour. After washing, fresh product was added to maintain viral suppression throughout the remaining of the experiment.
HIV-1 production was determined at 31 h post infection via a p24 ELISA (Perkin Elmer, Brussels, Belgium).

The conditions of data set [3]: previously known structural properties ref 20-22; cited from earlier work.
For the next data set, the system named is PHA-stimulated PBMCs. The data set can be described thus: Toxicity in PHA-stimulated PBMCs (trypan blue cell counting). Type of data set: cell-based, human. Conditions: proliferation of seven-day drug-exposed PHA-stimulated PBMCs; mean ± SD; read-out: IC50 PBMC. Here is the method: A similar experiment was performed to study the toxicity of the compounds in fresh, PHA-stimulated, PBMCs. Mock-infected PBMCs (2 x 10^5 cells) were exposed to a serial dilution of compound, in a total volume of 200 μl. Cells were passaged after 4 days. Cell survival and proliferation was assessed at day 7 using trypan blue-based cell counting with the Countess Automated Cell Counter (Invitrogen, Ghent, Belgium). The IC50 was defined as the concentration of the compound that inhibited cell proliferation by 50%.

Data set [4] concerns HuT-78/HIV-1 and Sup-T1 cells. The data set can be described thus: cells. As to conditions: cocultures of HuT-78/HIV-1 and Sup-T1 cells, ~24 hours; read-out: IC50 inhibition of syncytia formation. Type of data set: cell-based. Here is the method:
Persistently infected HuT-78/HIV-1 cells were thoroughly washed to eliminate free virions. Next, 1 x 10^5 HuT-78/HIV-1 cells were co-cultivated with 1 x 10^5 Sup-T1 cells in 96-well plates (200 μl/well) during 20 h at 37°C, in the presence or absence of a serial dilution of compound. Afterwards, the formation of syncytia was evaluated microscopically. The EC50 was defined as the compound concentration required to suppress syncytia formation by 50%.

Another data set has as its system HIV-2(ROD). The data set can be described thus: Inhibition of HIV-2(ROD)-induced giant cell formation in CEM cell cultures. It is filed as cell-based. Conditions: CEM cells. Here is the method:
To study the antiviral activity in transformed cells, CEM cells were suspended in fresh culture medium and infected with HIV-1(IIIB) or HIV-2(ROD) at 100 x CCID50 (cell culture infective dose 50%) per ml of cell suspension. Infected cell suspension (100 μl; 3 x 10^5 cells/ml) was transferred to a 96-well microplate, mixed with 100 μl of the appropriate dilutions of compounds, and further incubated at 37°C. After 4 days, giant cell formation was recorded microscopically and the number of giant cells was estimated microscopically as percentage of the number of giant cells present in the non-treated virus-infected cell cultures.

For another data set, the target named is PDI (Homo sapiens, UniProt P07237). The data set can be described thus: SPR binding to immobilized PDI. Conditions: 10, 50 and 250 μM. Here is the method:
SPR analysis was performed to evaluate binding of TE-2 to immobilized recombinant TrxR1, PDI, gp120, gp41 and sCD4. Therefore, these ligands were immobilized on a CM5 sensor chip (GE Healthcare, Uppsala, Sweden) using standard amine coupling in the presence of 10 mM sodium acetate, pH 5. A high ligand-density chip was created, with ligand densities of 6759, 5004, 4119, 2900 and 5569 RU, respectively. A reference flow cell was used to control for non-specific binding and refractive index changes. All interactions were studied at 25°C on a Biacore T200 instrument (GE Healthcare, Uppsala, Sweden) in HBS-P (10 mM HEPES, 150 mM NaCl and 0.05% surfactant P20; pH 7.4) supplemented with 10 mM CaCl2 and 5% DMSO. TE-2 was tested at the concentrations 10, 50 and 250 μM. Samples were injected during 2 minutes at a flow rate of 30 μl/min, followed by a dissociation phase of 2 minutes. Each injection was followed by a regeneration step with 50 mM NaOH (injected during 10 seconds at a flow rate of 100 μl/min).
(In general: In SPR one partner is held on a chip, and binding of the other changes the refractive index at the surface.)

PDI, sequence (P07237 18-508, species assumed): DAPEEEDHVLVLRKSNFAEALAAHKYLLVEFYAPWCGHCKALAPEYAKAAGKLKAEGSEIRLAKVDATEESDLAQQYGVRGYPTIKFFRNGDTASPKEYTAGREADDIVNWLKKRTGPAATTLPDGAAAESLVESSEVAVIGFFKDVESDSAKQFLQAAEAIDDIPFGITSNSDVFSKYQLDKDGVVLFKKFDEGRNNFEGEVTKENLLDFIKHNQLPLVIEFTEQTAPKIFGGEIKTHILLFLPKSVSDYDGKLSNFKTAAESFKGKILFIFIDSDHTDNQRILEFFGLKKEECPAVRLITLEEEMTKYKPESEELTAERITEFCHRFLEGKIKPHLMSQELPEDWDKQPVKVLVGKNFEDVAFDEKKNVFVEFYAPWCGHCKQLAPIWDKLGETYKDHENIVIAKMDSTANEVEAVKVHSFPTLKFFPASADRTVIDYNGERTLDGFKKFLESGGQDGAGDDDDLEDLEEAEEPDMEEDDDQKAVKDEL

Regarding “6-(butyltelluro)-6-deoxy-β-cyclodextrin [TE-2]”, the EC50 is ≥ 25 µM in the data set on HIV-1(BaL); 15 ± 7 µM with HIV-1(IIIB) [1]; 1.5 ± 0.52 µM in the data set with HIV-2(ROD) (concentration required to protect against cytopathogenicity of HIV by 50%, mean ± SD, read-out: EC50 HIV-2 (ROD)). Also, the time-of-drug-addition profile entry in the data set on HIV-1(IIIB) [2] is on record as “mostly lost when added at t = 1 h after infection; also recorded: profile resembling that of the fusion inhibitor enfuvirtide (T-20)”. In data set [3], the Hydrophobicity result was “Hydrophilic”. The half-maximal inhibitory concentration (IC50) in the data set with PHA-stimulated PBMCs was 54 ± 16 µM; in data set [4], > 250 µM. Besides, the “Ratio IC50/EC50 HIV-2 (CEM)” value in the data set on HIV-2(ROD) is listed as 167. Moreover, the “SPR binding to PDI” value on PDI was “dose-dependently interact with PDI”.
